Test results published in PubChem BioAssay (NCI).
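Values below derive from 48-hour exposures of cells grown in 96-well plates, with endpoints linearly interpolated between the two concentrations bracketing the appropriate inhibition level. Definition used: TGI = concentration required for complete inhibition of growth.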

Columns and labels:
Test in all cases: DTP human tumour cell line panel, 48 h
OVCAR-3 ovarian = system: OVCAR-3 ovarian
SK-MEL-28 melanoma = system: SK-MEL-28 melanoma
SF-268 CNS = system: SF-268 CNS
HS 578T breast = system: HS 578T breast
SK-OV-3 ovarian = system: SK-OV-3 ovarian
HCT-15 colon = system: HCT-15 colon
SK-MEL-2 melanoma = system: SK-MEL-2 melanoma
DU-145 prostate = system: DU-145 prostate
MOLT-4 leukemia = system: MOLT-4 leukemia
UACC-62 melanoma = system: UACC-62 melanoma
SF-295 CNS = system: SF-295 CNS
EKVX NSCLC = system: EKVX NSCLC
TK-10 renal = system: TK-10 renal
BT-549 breast = system: BT-549 breast
UO-31 renal = system: UO-31 renal
NCI/ADR-RES ovarian = system: NCI/ADR-RES ovarian
CCRF-CEM leukemia = system: CCRF-CEM leukemia
SNB-75 CNS = system: SNB-75 CNS
KM12 colon = system: KM12 colon
SR leukemia = system: SR leukemia
HOP-92 NSCLC = system: HOP-92 NSCLC
NCI-H23 lung = system: NCI-H23 lung
SN12C renal = system: SN12C renal
SF-539 CNS = system: SF-539 CNS
CAKI-1 renal = system: CAKI-1 renal
HCC-2998 colon = system: HCC-2998 colon
NCI-H226 lung = system: NCI-H226 lung
A498 renal = system: A498 renal
T-47D breast = system: T-47D breast
ACHN renal = system: ACHN renal
SNB-19 CNS = system: SNB-19 CNS
SW-620 colon = system: SW-620 colon
U251 CNS = system: U251 CNS
A549 NSCLC = system: A549 NSCLC
PC-3 prostate = system: PC-3 prostate
UACC-257 melanoma = system: UACC-257 melanoma
COLO 205 colon = system: COLO 205 colon
RXF 393 renal = system: RXF 393 renal
OVCAR-5 ovarian = system: OVCAR-5 ovarian
786-0 renal = system: 786-0 renal
HCT-116 colon = system: HCT-116 colon
RPMI-8226 leukemia = system: RPMI-8226 leukemia
IGROV1 ovarian = system: IGROV1 ovarian
OVCAR-8 ovarian = system: OVCAR-8 ovarian
HL-60(TB) leukemia = system: HL-60(TB) leukemia
HOP-62 NSCLC = system: HOP-62 NSCLC
MDA-MB-435 = system: MDA-MB-435
MCF7 breast = system: MCF7 breast
SK-MEL-5 melanoma = system: SK-MEL-5 melanoma
NCI-H460 lung = system: NCI-H460 lung
MALME-3M melanoma = system: MALME-3M melanoma
NCI-H522 lung = system: NCI-H522 lung
M14 melanoma = system: M14 melanoma
HT29 colon = system: HT29 colon
MDA-N = system: MDA-N
LOX IMVI melanoma = system: LOX IMVI melanoma
MDA-MB-231 breast = system: MDA-MB-231 breast
K-562 leukemia = system: K-562 leukemia
OVCAR-4 ovarian = system: OVCAR-4 ovarian

SMILES: CC1=NC(C)(C)[N+]([O-])=C1
- TGI (OVCAR-3 ovarian): > 10 µM
- TGI (SK-MEL-28 melanoma): > 10 µM
- TGI (SF-268 CNS): > 10 µM
- TGI (HS 578T breast): > 10 µM
- TGI (SK-OV-3 ovarian): > 10 µM
- TGI (HCT-15 colon): > 10 µM
- TGI (SK-MEL-2 melanoma): > 10 µM
- TGI (DU-145 prostate): > 10 µM
- TGI (MOLT-4 leukemia): > 10 µM
- TGI (UACC-62 melanoma): > 10 µM
- TGI (SF-295 CNS): > 10 µM
- TGI (EKVX NSCLC): > 10 µM
- TGI (TK-10 renal): > 10 µM
- TGI (BT-549 breast): > 10 µM
- TGI (UO-31 renal): > 10 µM
- TGI (NCI/ADR-RES ovarian): > 10 µM
- TGI (CCRF-CEM leukemia): > 10 µM
- TGI (SNB-75 CNS): 4.85 µM
- TGI (KM12 colon): > 10 µM
- TGI (SR leukemia): > 10 µM
- TGI (HOP-92 NSCLC): > 10 µM
- TGI (NCI-H23 lung): > 10 µM
- TGI (SN12C renal): > 10 µM
- TGI (SF-539 CNS): > 10 µM
- TGI (CAKI-1 renal): > 10 µM
- TGI (HCC-2998 colon): > 10 µM
- TGI (NCI-H226 lung): > 10 µM
- TGI (A498 renal): > 10 µM
- TGI (T-47D breast): > 10 µM
- TGI (ACHN renal): > 10 µM
- TGI (SNB-19 CNS): > 10 µM
- TGI (SW-620 colon): > 10 µM
- TGI (U251 CNS): > 10 µM
- TGI (A549 NSCLC): > 10 µM
- TGI (PC-3 prostate): > 10 µM
- TGI (UACC-257 melanoma): > 10 µM
- TGI (COLO 205 colon): > 10 µM
- TGI (RXF 393 renal): > 10 µM
- TGI (OVCAR-5 ovarian): > 10 µM
- TGI (786-0 renal): > 10 µM
- TGI (HCT-116 colon): > 10 µM
- TGI (RPMI-8226 leukemia): > 10 µM
- TGI (IGROV1 ovarian): > 10 µM
- TGI (OVCAR-8 ovarian): > 10 µM
- TGI (HL-60(TB) leukemia): > 10 µM
- TGI (HOP-62 NSCLC): > 10 µM
- TGI (MDA-MB-435): > 10 µM
- TGI (MCF7 breast): > 10 µM
- TGI (SK-MEL-5 melanoma): > 10 µM
- TGI (NCI-H460 lung): > 10 µM
- TGI (MALME-3M melanoma): > 10 µM
- TGI (NCI-H522 lung): > 10 µM
- TGI (M14 melanoma): > 10 µM
- TGI (HT29 colon): > 10 µM
- TGI (MDA-N): > 10 µM
- TGI (LOX IMVI melanoma): > 10 µM
- TGI (MDA-MB-231 breast): > 10 µM
- TGI (K-562 leukemia): > 10 µM

SMILES: O=c1cc(-c2ccccc2)c2ccc(O)c(CN(CCCl)CCCl)c2o1
- TGI (OVCAR-3 ovarian): 40.4 µM
- TGI (SK-MEL-28 melanoma): 36.7 µM
- TGI (SF-268 CNS): 44.5 µM
- TGI (HS 578T breast): 69.5 µM
- TGI (HCT-15 colon): 45.2 µM
- TGI (SK-MEL-2 melanoma): 59.8 µM
- TGI (DU-145 prostate): > 100 µM
- TGI (MOLT-4 leukemia): 47.8 µM
- TGI (UACC-62 melanoma): 51.6 µM
- TGI (SF-295 CNS): 29.7 µM
- TGI (EKVX NSCLC): 59.1 µM
- TGI (BT-549 breast): 25 µM
- TGI (UO-31 renal): 36.9 µM
- TGI (NCI/ADR-RES ovarian): > 100 µM
- TGI (CCRF-CEM leukemia): 20.7 µM
- TGI (SNB-75 CNS): 38.9 µM
- TGI (KM12 colon): 35.8 µM
- TGI (SR leukemia): 33.1 µM
- TGI (HOP-92 NSCLC): 56.8 µM
- TGI (NCI-H23 lung): 41.7 µM
- TGI (SN12C renal): 38.5 µM
- TGI (SF-539 CNS): 44.4 µM
- TGI (CAKI-1 renal): 29.1 µM
- TGI (HCC-2998 colon): 25 µM
- TGI (OVCAR-4 ovarian): > 100 µM
- TGI (NCI-H226 lung): 32.5 µM
- TGI (A498 renal): 41.6 µM
- TGI (T-47D breast): 55.6 µM
- TGI (ACHN renal): 64 µM
- TGI (SNB-19 CNS): 47 µM
- TGI (SW-620 colon): 69.7 µM
- TGI (U251 CNS): 56.9 µM
- TGI (A549 NSCLC): 57.3 µM
- TGI (PC-3 prostate): 36.8 µM
- TGI (UACC-257 melanoma): 33.9 µM
- TGI (COLO 205 colon): 25.9 µM
- TGI (RXF 393 renal): 30.1 µM
- TGI (OVCAR-5 ovarian): 34.1 µM
- TGI (786-0 renal): 39.3 µM
- TGI (HCT-116 colon): 43.1 µM
- TGI (RPMI-8226 leukemia): 47.8 µM
- TGI (IGROV1 ovarian): 33.8 µM
- TGI (OVCAR-8 ovarian): 48.2 µM
- TGI (HL-60(TB) leukemia): 40.4 µM
- TGI (HOP-62 NSCLC): 33.2 µM
- TGI (MDA-MB-435): 39.9 µM
- TGI (MCF7 breast): > 100 µM
- TGI (SK-MEL-5 melanoma): 31 µM
- TGI (NCI-H460 lung): > 100 µM
- TGI (MALME-3M melanoma): 41.3 µM
- TGI (NCI-H522 lung): 35.7 µM
- TGI (M14 melanoma): 42 µM
- TGI (HT29 colon): 26 µM
- TGI (MDA-N): 35.1 µM
- TGI (LOX IMVI melanoma): 22.1 µM
- TGI (MDA-MB-231 breast): 33.2 µM
- TGI (K-562 leukemia): 91.5 µM

SMILES: COc1ccc(NC2=NCCO2)c2c1CCCC2
- TGI (OVCAR-3 ovarian): > 100 µM
- TGI (SK-MEL-28 melanoma): > 100 µM
- TGI (HS 578T breast): 91.6 µM
- TGI (SK-OV-3 ovarian): 84.8 µM
- TGI (HCT-15 colon): > 100 µM
- TGI (SK-MEL-2 melanoma): 42.6 µM
- TGI (DU-145 prostate): > 100 µM
- TGI (MOLT-4 leukemia): 42.4 µM
- TGI (UACC-62 melanoma): 89.2 µM
- TGI (SF-295 CNS): > 100 µM
- TGI (EKVX NSCLC): > 100 µM
- TGI (TK-10 renal): > 100 µM
- TGI (BT-549 breast): > 100 µM
- TGI (UO-31 renal): > 100 µM
- TGI (NCI/ADR-RES ovarian): > 100 µM
- TGI (CCRF-CEM leukemia): 86 µM
- TGI (SNB-75 CNS): 93.9 µM
- TGI (KM12 colon): > 100 µM
- TGI (SR leukemia): 88.2 µM
- TGI (HOP-92 NSCLC): 79.5 µM
- TGI (NCI-H23 lung): 87.9 µM
- TGI (SF-539 CNS): > 100 µM
- TGI (CAKI-1 renal): > 100 µM
- TGI (HCC-2998 colon): > 100 µM
- TGI (OVCAR-4 ovarian): > 100 µM
- TGI (NCI-H226 lung): 65.3 µM
- TGI (A498 renal): > 100 µM
- TGI (T-47D breast): > 100 µM
- TGI (ACHN renal): > 100 µM
- TGI (SNB-19 CNS): > 100 µM
- TGI (SW-620 colon): > 100 µM
- TGI (U251 CNS): > 100 µM
- TGI (A549 NSCLC): > 100 µM
- TGI (PC-3 prostate): > 100 µM
- TGI (UACC-257 melanoma): > 100 µM
- TGI (COLO 205 colon): > 100 µM
- TGI (RXF 393 renal): 86.2 µM
- TGI (OVCAR-5 ovarian): > 100 µM
- TGI (786-0 renal): > 100 µM
- TGI (HCT-116 colon): > 100 µM
- TGI (RPMI-8226 leukemia): 87 µM
- TGI (IGROV1 ovarian): > 100 µM
- TGI (OVCAR-8 ovarian): > 100 µM
- TGI (HL-60(TB) leukemia): 40 µM
- TGI (MDA-MB-435): > 100 µM
- TGI (MCF7 breast): > 100 µM
- TGI (SK-MEL-5 melanoma): 33.7 µM
- TGI (NCI-H460 lung): > 100 µM
- TGI (MALME-3M melanoma): > 100 µM
- TGI (NCI-H522 lung): > 100 µM
- TGI (M14 melanoma): > 100 µM
- TGI (HT29 colon): > 100 µM
- TGI (MDA-N): > 100 µM
- TGI (LOX IMVI melanoma): > 100 µM
- TGI (MDA-MB-231 breast): > 100 µM
- TGI (K-562 leukemia): > 100 µM
